Data set [1] concerns the target alcohol oxidase (alcohol: oxygen oxidoreductase) isolated from Pichia pastoris (Komagataella phaffii, UniProt F2QY27).
Substrate in data set [2]: CO
Description: purified protein, by the assay type. To be noted: other: Pichia pastoris alcohol oxidase; substrate methanol.

Take `C=O` [HCHO, formaldehyde]: the “Inhibitors (inhibitory concentration of HCHO)” value in data set [1] (Table I lists HCHO as inhibitor at >30 mM) is listed as > 30 mM.

With `CO` [methanol], the Michaelis-Menten constant (Km) in data set [1] (read-out: apparent Michaelis constant, Km, for methanol, substrate methanol) was ~4 mM.

B1: alcohol oxidase (alcohol: oxygen oxidoreductase) isolated from Pichia pastoris (Komagataella phaffii CBS 7435) (protein)
chain: AIPEEFDILVLGGGSSGSCIAGRLANLDHSLKVGLIEAGENNLNNPWVYLPGIYPRNMKLDSKTASFYTSNPSPHLNGRRAIVPCANVLGGGSSINFMMYTRGSASDYDDFQAEGWKTKDLLPLMKKTETYQRACNNPDIHGFEGPIKVSFGNYTYPVCQDFLRASESQGIPYVDDLEDLVTAHGAEHWLKWINRDTGRRSDSAHAFVHSTMRNHDNLYLICNTKVDKIIVEDGRAAAVRTVPSKPLNPKKPSHKIYRARKQIVLSCGTISSPLVLQRSGFGDPIKLRAAGVKPLVNLPGVGRNFQDHYCFFSPYRIKPQYESFDDFVRGDAEIQKRVFDQWYANGTGPLATNGIEAGVKIRPTPEELSQMDESFQEGYREYFEDKPDKPVMHYSIIAGFFGDHTKIPPGKYMTMFHFLEYPFSRGSIHITSPDPYAAPDFDPGFMNDERDMAPMVWAYKKSRETARRMDHFAGEVTSHHPLFPYSSEARALEMDLETSNAYGGPLNLSAGLAHGSWTQPLKKPTAKNEGHVTSNQVELHPDIEYDEEDDKAIENYIREHTETTWHCLGTCSIGPREGSKIVKWGGVLDHRSNVYGVKGLKVGDLSVCPDNVGCNTYTTALLIGEKTATLVGEDLGYSGEALDMTVPQFKLGTYEKTGLARF
Turning to B1, the Michaelis-Menten constant (Km) in data set [2] is 4 mM.
